Assay results reported in the supplement of paper PMC10307832.

Tests used:
Experiment in all cases: relative viability (nuclei count vs DMSO), 5 days (fraction); higher = more cells survive
[1] = compound: C#Cc1cccc(Nc2ncnc3cc(OC)c(OCCCCCCC(=O)NO)cc23)c1 [CUDC-101] + Nc1ncn([C@H]2C[C@H](O)[C@@H](CO)O2)c(=O)n1 [Decitabine] (partner 2 µM)
Summary of the method: (§1)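 Relative viability equals treated-well nuclei counts divided by vehicle-well nuclei counts. Counts came from 4× images of lung cancer cell lines grown in 1536-well plates for 5 days after pin-tool dosing on the day after seeding. Dosing used one drug alone or a fixed anchor-drug dose plus five library-drug doses (not always all listed) in √10 steps, and values are medians of duplicate plates.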

[2] = compound: C#Cc1cccc(Nc2ncnc3cc(OC)c(OCCCCCCC(=O)NO)cc23)c1 [CUDC-101] + NC(=O)Nc1cc(-c2cccc(F)c2)sc1C(=O)N[C@H]1CCCNC1 [AZD7762] (partner 0.2 µM)
Summary of the method: as §1

[3] = compound: C#Cc1cccc(Nc2ncnc3cc(OC)c(OCCCCCCC(=O)NO)cc23)c1 [CUDC-101] + COc1cccc2cc(-c3nc([C@H]4CC[C@H](C(=O)O)CC4)n4ncnc(N)c34)[nH]c12 [OSI-027] (partner 0.5 µM)
Summary of the method: as §1

[4] = compound: C#Cc1cccc(Nc2ncnc3cc(OC)c(OCCCCCCC(=O)NO)cc23)c1 [CUDC-101] + COc1cc2c(Oc3ccc(NC(=O)C4(C(=O)Nc5ccc(F)cc5)CC4)cc3F)ccnc2cc1OCCCN1CCOCC1 [Foretinib] (partner 0.25 µM)
Summary of the method: as §1

Cell Line | relative viability ([1]; first compound 0.01 µM) | relative viability ([1]; first compound 0.03162 µM) | relative viability ([1]; first compound 0.1 µM) | relative viability ([1]; first compound 0.3162 µM) | relative viability ([1]; first compound 1 µM) | relative viability ([2]; first compound 0.01 µM) | relative viability ([2]; first compound 0.03162 µM) | relative viability ([2]; first compound 0.1 µM) | relative viability ([2]; first compound 0.3162 µM) | relative viability ([2]; first compound 1 µM) | relative viability ([3]; first compound 0.01 µM) | relative viability ([3]; first compound 0.03162 µM) | relative viability ([3]; first compound 0.1 µM) | relative viability ([3]; first compound 0.3162 µM) | relative viability ([3]; first compound 1 µM) | relative viability ([4]; first compound 0.01 µM) | relative viability ([4]; first compound 0.03162 µM) | relative viability ([4]; first compound 0.1 µM) | relative viability ([4]; first compound 0.3162 µM) | relative viability ([4]; first compound 1 µM)
HCC-366 | 0.335 | 0.33 | 0.339 | 0.383 | 0.354 | 0.254 | 0.174 | 0.285 | 0.289 | 0.211 | 0.914 | 0.768 | 1.01 | 1.15 | 0.815 | 0.939 | 0.93 | 0.95 | 0.847 | 0.882
HCC-827 | 0.309 | 0.248 | 0.177 | 0.149 | 0.155 | 0.206 | 0.145 | 0.13 | 0.117 | 0.113 | 0.813 | 0.46 | 0.177 | 0.144 | 0.136 | 1 | 0.436 | 0.203 | 0.153 | 0.167
HOP-62 | 0.288 | 0.238 | 0.224 | 0.22 | 0.229 | 0.61 | 0.448 | 0.447 | 0.424 | 0.294 | 0.862 | 0.842 | 0.896 | 0.924 | 0.567 | 1.08 | 1.08 | 1.1 | 1.14 | 0.713
IA-LM |  |  |  |  |  |  |  |  |  |  |  |  |  |  |  | 1.27 | 1.1 | 1.12 | 1.11 | 0.657
LC-2-ad | 0.872 | 0.774 | 0.829 | 0.717 | 0.621 | 0.904 | 0.858 | 0.824 | 0.778 | 0.581 | 0.823 | 1.04 | 0.985 | 0.827 | 0.339 | 0.863 | 0.947 | 0.904 | 0.899 | 0.52
LCLC-97TM1 | 0.286 | 0.24 | 0.227 | 0.228 | 0.191 | 0.264 | 0.211 | 0.343 | 0.305 | 0.248 | 0.635 | 0.571 | 0.445 | 0.548 | 0.273 | 0.844 | 0.824 | 0.962 | 0.829 | 0.666
NCI-H520 | 0.49 | 0.622 | 0.478 | 0.513 | 0.318 |  |  |  |  |  | 0.218 | 0.281 | 0.327 | 0.256 | 0.191 | 0.961 | 0.746 | 0.804 | 0.752 | 0.509
NCI-H522 | 0.58 | 0.622 | 0.761 | 0.616 | 0.677 | 0.932 | 0.753 | 0.791 | 0.75 | 0.689 | 0.638 | 0.64 | 0.67 | 0.703 | 0.549 |  |  |  |  | 
NCI-H661 | 0.544 | 0.497 | 0.487 | 0.571 | 0.307 |  |  |  |  |  | 0.709 | 0.808 | 0.735 | 0.711 | 0.346 | 1.06 | 0.861 | 1.05 | 0.98 | 0.536
NCI-H1299 |  |  |  |  |  |  |  |  |  |  |  |  |  |  |  | 1.08 | 1.06 | 1.13 | 1.12 | 1.04
